# Test results reported in US7880007B2, “Bicyclic substituted phenyl piperidine modulators of muscarinic receptors” (Vertex Pharmaceuticals Incorporated, priority 2004, dated 2011).
# Columns and labels:
# Format in all cases: cell-based
# [1] = molecular target: T1, M1 muscarinic receptor (Homo sapiens, UniProt P11229); experiment: Functional mobilization of intracellular calcium (FLIPR), M1-CHO cells; settings: for Emax: 100% efficacy = maximum response obtained with the Carbachol control; for M1 Activity: M1-CHO cells, calcium mobilization (FLIPR)
# T1 construct: expressed in transfected cells; host or cells: CHO (M1-CHO)
# T1 sequence (P11229 1-460): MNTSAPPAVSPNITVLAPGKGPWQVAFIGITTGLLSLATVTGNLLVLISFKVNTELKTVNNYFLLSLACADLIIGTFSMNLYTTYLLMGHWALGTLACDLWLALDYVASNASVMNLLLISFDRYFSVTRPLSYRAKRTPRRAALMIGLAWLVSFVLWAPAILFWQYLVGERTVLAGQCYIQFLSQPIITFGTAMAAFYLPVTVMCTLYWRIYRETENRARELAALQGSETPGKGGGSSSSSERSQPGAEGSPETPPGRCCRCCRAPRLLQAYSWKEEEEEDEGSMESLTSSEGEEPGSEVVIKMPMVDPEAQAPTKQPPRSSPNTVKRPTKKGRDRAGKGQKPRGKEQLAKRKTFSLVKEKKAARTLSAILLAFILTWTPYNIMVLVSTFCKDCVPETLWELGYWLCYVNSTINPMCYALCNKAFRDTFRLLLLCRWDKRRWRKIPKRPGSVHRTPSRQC
# In short: (§1)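 Calcium mobilisation read by FLIPR over 60 s (ex 488/em 540 nm) in recombinant muscarinic CHO lines loaded with calcium dye plus 1 mM probenecid. Compounds tested as agonists alone, or as inhibitors against EC80 carbachol after 15 min pre-incubation or co-addition; 0.5% DMSO; efficacy scaled to carbachol maximal response.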
# [2] = molecular target: T2, M2 muscarinic receptor (Homo sapiens, UniProt P08172); experiment: Functional mobilization of intracellular calcium (FLIPR), M2-CHO cells; settings: for Emax: 100% efficacy = maximum response obtained with the Carbachol control; for M2 Activity: M2-CHO cells, calcium mobilization (FLIPR)
# T2 construct: expressed in transfected cells; host or cells: CHO (M2-CHO)
# T2 sequence (P08172 1-466): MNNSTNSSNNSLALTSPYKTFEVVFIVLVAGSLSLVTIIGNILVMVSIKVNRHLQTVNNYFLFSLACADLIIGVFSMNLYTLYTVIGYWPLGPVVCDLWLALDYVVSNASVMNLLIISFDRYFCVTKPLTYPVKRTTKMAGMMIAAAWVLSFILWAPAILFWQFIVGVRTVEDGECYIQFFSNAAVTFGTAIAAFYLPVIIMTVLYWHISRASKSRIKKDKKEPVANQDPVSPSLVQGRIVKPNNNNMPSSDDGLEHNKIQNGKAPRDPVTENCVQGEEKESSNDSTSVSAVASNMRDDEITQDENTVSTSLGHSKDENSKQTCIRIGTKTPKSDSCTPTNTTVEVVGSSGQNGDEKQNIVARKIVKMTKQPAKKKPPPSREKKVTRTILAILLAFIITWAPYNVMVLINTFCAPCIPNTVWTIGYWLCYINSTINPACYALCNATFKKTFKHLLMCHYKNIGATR
# In short: as §1
# [3] = molecular target: T3, M4 muscarinic receptor (Homo sapiens, UniProt P08173); experiment: Functional mobilization of intracellular calcium (FLIPR), M4-CHO cells; settings: for Emax: 100% efficacy = maximum response obtained with the Carbachol control; for M4 Activity: M4-CHO cells, calcium mobilization (FLIPR)
# T3 construct: expressed in transfected cells; host or cells: CHO (M4-CHO)
# T3 sequence (P08173 1-479): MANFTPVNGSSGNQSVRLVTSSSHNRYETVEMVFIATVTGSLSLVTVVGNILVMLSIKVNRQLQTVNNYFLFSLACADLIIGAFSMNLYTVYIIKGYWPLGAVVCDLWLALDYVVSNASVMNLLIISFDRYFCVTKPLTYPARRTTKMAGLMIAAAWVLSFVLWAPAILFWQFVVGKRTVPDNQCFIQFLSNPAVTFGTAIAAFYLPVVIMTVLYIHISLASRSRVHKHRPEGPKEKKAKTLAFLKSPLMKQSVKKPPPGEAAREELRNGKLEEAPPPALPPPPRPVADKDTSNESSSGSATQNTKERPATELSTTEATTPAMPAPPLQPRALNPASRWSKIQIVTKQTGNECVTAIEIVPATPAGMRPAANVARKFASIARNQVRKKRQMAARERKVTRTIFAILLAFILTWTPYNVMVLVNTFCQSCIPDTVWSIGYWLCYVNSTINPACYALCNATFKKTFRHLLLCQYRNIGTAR
# In short: as §1
# [4] = molecular target: T4, M3 muscarinic receptor (Homo sapiens, UniProt P20309); experiment: Functional mobilization of intracellular calcium (FLIPR), M3-CHO cells; settings: for Emax: 100% efficacy = maximum response obtained with the Carbachol control; for M3 Activity: M3-CHO cells, calcium mobilization (FLIPR)
# T4 construct: expressed in transfected cells; host or cells: CHO (M3-CHO)
# In short: as §1
# T4 sequence (P20309 whole entry): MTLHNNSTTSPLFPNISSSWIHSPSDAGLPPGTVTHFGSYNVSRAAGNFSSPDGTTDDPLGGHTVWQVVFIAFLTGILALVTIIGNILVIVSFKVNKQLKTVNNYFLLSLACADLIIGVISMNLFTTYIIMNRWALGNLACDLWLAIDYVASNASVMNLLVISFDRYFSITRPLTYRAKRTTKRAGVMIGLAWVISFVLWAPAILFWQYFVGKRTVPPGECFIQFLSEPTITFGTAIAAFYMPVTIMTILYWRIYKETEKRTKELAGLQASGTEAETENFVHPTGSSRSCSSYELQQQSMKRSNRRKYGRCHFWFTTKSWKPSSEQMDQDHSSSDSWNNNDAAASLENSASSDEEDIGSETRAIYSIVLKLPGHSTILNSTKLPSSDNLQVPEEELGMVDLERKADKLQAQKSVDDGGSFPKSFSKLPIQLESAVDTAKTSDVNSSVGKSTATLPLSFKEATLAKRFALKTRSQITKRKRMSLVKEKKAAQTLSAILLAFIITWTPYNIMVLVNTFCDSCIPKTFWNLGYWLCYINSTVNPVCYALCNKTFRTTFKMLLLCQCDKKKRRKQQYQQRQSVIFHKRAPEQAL
Compound,Emax [1] [%],M1 Activity [1],Emax [2] [%],M2 Activity [2],Emax [3] [%],M4 Activity [3],Emax [4] [%],M3 Activity [4]
COc1ccc(-c2ccccc2C2CCN([C@H]3C[C@H]4CC[C@H]3C4)CC2)c(OC)c1 [Compound 139],25 to 100,+ (activity was measured to be greater than 5.0 μM),< 25,+ (activity was measured to be greater than 5.0 μM),25 to 100,++ (activity was measured to be from 1.0 μM to 5.0 μM),< 25,+ (activity was measured to be greater than 5.0 μM)
"COc1ccc(Cl)cc1C1(OC)CCN(C[C@H]2C[C@H]3C=C[C@@H]2C3)CC1 [Compound 140, 1-(((1S,2S,4S)-bicyclo[2.2.1]hept-5-en-2-yl)methyl)-4-(5-chloro-2-methoxyphenyl)-4-methoxypiperidine]",25 to 100,++ (activity was measured to be from 1.0 μM to 5.0 μM),25 to 100,++ (activity was measured to be from 1.0 μM to 5.0 μM),25 to 100,+++ (activity was measured to be less than 1.0 μM),< 25,+ (activity was measured to be greater than 5.0 μM)
Clc1ccc(-c2ccccc2C2CCN([C@H]3C[C@H]4CC[C@H]3C4)CC2)cc1 [Compound 142],25 to 100,+ (activity was measured to be greater than 5.0 μM),25 to 100,+ (activity was measured to be greater than 5.0 μM),25 to 100,++ (activity was measured to be from 1.0 μM to 5.0 μM),< 25,+ (activity was measured to be greater than 5.0 μM)
COc1ccc(-c2cccc(Cl)c2)cc1C1CCN([C@@H]2C[C@H]3CC[C@H]2C3)CC1 [Compound 143],< 25,+ (activity was measured to be greater than 5.0 μM),< 25,+ (activity was measured to be greater than 5.0 μM),25 to 100,+ (activity was measured to be greater than 5.0 μM),< 25,+ (activity was measured to be greater than 5.0 μM)
COc1ccc(-c2cccc(C(N)=O)c2)cc1C1CCN([C@@H]2C[C@H]3CC[C@H]2C3)CC1 [Compound 144],< 25,+ (activity was measured to be greater than 5.0 μM),< 25,+ (activity was measured to be greater than 5.0 μM),< 25,+ (activity was measured to be greater than 5.0 μM),< 25,+ (activity was measured to be greater than 5.0 μM)
CCOC(=O)N1CCC(CN2CCC(c3cc(-c4ccc(S(C)(=O)=O)cc4)ccc3OC)CC2)CC1 [Compound 146],25 to 100,+++ (activity was measured to be less than 1.0 μM),< 25,+ (activity was measured to be greater than 5.0 μM),25 to 100,+++ (activity was measured to be less than 1.0 μM),< 25,+ (activity was measured to be greater than 5.0 μM)
c1ccc(C2CCN([C@H]3C[C@H]4CC[C@H]3C4)CC2)c(OCC2CCCCO2)c1 (stereo partly shown) [Compound 147],25 to 100,++ (activity was measured to be from 1.0 μM to 5.0 μM),25 to 100,++ (activity was measured to be from 1.0 μM to 5.0 μM),25 to 100,+++ (activity was measured to be less than 1.0 μM),< 25,+ (activity was measured to be greater than 5.0 μM)
COc1ccc(-c2cccnc2)cc1C1CCN([C@H]2C[C@H]3CC[C@H]2C3)CC1 [Compound 148],< 25,+ (activity was measured to be greater than 5.0 μM),< 25,+ (activity was measured to be greater than 5.0 μM),< 25,+ (activity was measured to be greater than 5.0 μM),< 25,+ (activity was measured to be greater than 5.0 μM)
Cc1c(C2CCN(C3C[C@H]4CC[C@H]3C4)CC2)cccc1C(F)(F)F (stereo partly shown) [Compound 149],25 to 100,+ (activity was measured to be greater than 5.0 μM),< 25,+ (activity was measured to be greater than 5.0 μM),25 to 100,+ (activity was measured to be greater than 5.0 μM),< 25,+ (activity was measured to be greater than 5.0 μM)
COc1ccc(F)cc1C1(OC)CCN(CC2CCOCC2)CC1 [Compound 150],25 to 100,+ (activity was measured to be greater than 5.0 μM),< 25,+ (activity was measured to be greater than 5.0 μM),25 to 100,+ (activity was measured to be greater than 5.0 μM),< 25,+ (activity was measured to be greater than 5.0 μM)
COc1ccccc1C1CCN(C2CCC(C(C)(C)C)CC2)CC1 (stereo not shown) [Compound 152],< 25,+ (activity was measured to be greater than 5.0 μM),< 25,+ (activity was measured to be greater than 5.0 μM),< 25,+ (activity was measured to be greater than 5.0 μM),< 25,+ (activity was measured to be greater than 5.0 μM)
COc1ccccc1[C@@H]1CCN([C@@H]2C[C@H]3CC[C@H]2C3)C[C@H]1O [Compound 154],< 25,+ (activity was measured to be greater than 5.0 μM),< 25,+ (activity was measured to be greater than 5.0 μM),25 to 100,+ (activity was measured to be greater than 5.0 μM),< 25,+ (activity was measured to be greater than 5.0 μM)
COc1ccccc1C1CCN(C2CCC(C(C)C)CC2)CC1 (stereo not shown) [Compound 155],< 25,+ (activity was measured to be greater than 5.0 μM),< 25,+ (activity was measured to be greater than 5.0 μM),< 25,+ (activity was measured to be greater than 5.0 μM),< 25,+ (activity was measured to be greater than 5.0 μM)
COc1ccccc1C1CCN(C2CCC(C)CC2)CC1 (stereo not shown) [Compound 158],25 to 100,+ (activity was measured to be greater than 5.0 μM),< 25,+ (activity was measured to be greater than 5.0 μM),25 to 100,+++ (activity was measured to be less than 1.0 μM),< 25,+ (activity was measured to be greater than 5.0 μM)
